The values below are quoted from earlier work in paper PMC9804730 (Diabetes, Obesity & Metabolism, 2022).

The conditions of data set [1]: N- and C-terminal degradation.

Consider “(D‐Arg^35)‐sea lamprey PYY (1–36) [SL‐PYY]”, for which the “effect on insulin secretion” value is given as “insulinostatic”. In addition, where the note is “acute setting”, the “effect on blood glucose levels in the acute setting” value is recorded as “does not affect”. Further, the enzymatic stability result in data set [1] is “N‐ and C‐terminally enzyme‐resistant”.
